Test results: patent US20240415819A1, “MACROCYCLIC COMPOUNDS AS PROTEASOME SUBUNIT BETA TYPE-5 INHIBITORS” (Lead Discovery Center GmbH, priority 2021, published 2024)
Like-named read-outs stand apart in the source and are kept apart here.

Assays:
[1] = tested on: RPMI 8226 (B lymphocyte cell line, multiple myeloma); assay: 48 hr CTG viability assay, RPMI 8226; format: cell-based; details: Homo sapiens
Protocol: (§1) A viability assay was conducted for 48 hours to evaluate the inhibition of cancer cell growth by proteasome inhibitors. Briefly, the candidate cell line was plated with a 96-well plate following density of cells, respectively. 6×10^3 Cells/well for A2780 (human ovarian cancer cell line) and MDA-MB-468 (breast carcinoma), 8×10^3 Cells/well for Hs746T (human gastric carcinoma cell line), 1.1×10^4 Cells/well for MM1 S and RPMI 8226 (multiple myeloma). After 24 hours, the cells were treated with various concentrations of the compound (ranging from 0.0015 uM to 10 uM). […] After 48 hours of incubation at 37° C., 5% CO2 incubator, cells were analyzed for viability using the CellTiter-Glo Luminescent Cell Viability assay (Promega, Cat #G7570). All viability assays were performed in duplicate and Luminescence was read using an Envision (Perkin Elmer, USA). Data were analyzed using XLfit software. […] (human gastric carcinoma cell line), MM1 S (B lymphoblast cell line), and RPMI 8226 (B lymphocyte cell line, multiple myeloma). Inhibition is indicated as IC50 [nM] (“-”=not measured).

[2] = biological target: T1, β5 subunit of the human constitutive proteasome (CPS) (Homo sapiens, UniProt P28074); assay: β5 inhibition assay, human constitutive proteasome (Suc-LLVY-AMC); format: biochemical; details: IC50 class, Suc-LLVY-AMC substrate
T1 construct: purchased Boston Biochem E-360
Protocol: The enzymatic activity of the β5 subunit of the human constitutive proteasome (CPS) is analyzed. In another assay, which differs from the assay of the human constitutive proteasome only in using the human immunoproteasome (IPS) the enzymatic activity of the β5 subunit of the human immunoproteasome (IPS) is analyzed. […] Inhibition is indicated as IC50 [nM] (“-”=not measured).

[3] = tested on: Hs 746T (human gastric carcinoma cell line); assay: 48 hr CTG viability assay, Hs 746T; format: cell-based; details: Hs746T
Protocol: as §1

[4] = tested on: MM1 S (B lymphoblast cell line); assay: 48 hr CTG viability assay, MM1S; format: cell-based; details: Homo sapiens
Protocol: as §1

[5] = biological target: T2, β5 subunit of the human immunoproteasome (IPS) (Homo sapiens, UniProt P28062); assay: β5 inhibition assay, human immunoproteasome (Suc-LLVY-AMC); format: biochemical; details: IC50 class, Suc-LLVY-AMC substrate
T2 construct: purchased Boston Biochem E-370
Procedure, shortened: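 β5 activity is read as liberated AMC fluorescence (355/460 nm) after 4 h dark reaction at RT with 22.6 μM Suc-LLVY-AMC, stopped by 1 μM bortezomib. Beforehand, 1 nM human IPS and compound sat 10 min at RT in HEPES pH 7.5 buffer containing NaCl, 0.02% SDS and DTT.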

[6] = tested on: A549 (human lung carcinoma cell line); assay: Glo assay of A549 cells (Table 3; ProteasomeGlo plating scheme); format: cell-based; details: Homo sapiens
Procedure, shortened: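 After acoustic compound transfer, plates incubate 105 min (37° C., 5% CO2). Proteasome-Glo reagent containing Suc-LLVY-Glo substrate is added, plates are shaken, then luminescence is measured after 10-15 min to derive IC50 [nM]. Staurosporine and DMSO serve as controls.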

[7] = RPMI-8226, 48 hr CTG, read-out: RPMI-8226 IC50
[8] = 48 hr CTG, read-out: Hs 746T IC50
[9] = A549 cells, read-out: PGLo A549

Row | Structure (SMILES) | IC50 [1, 7] [nM] | IC50 [2] [nM] | IC50 [3, 8] [nM] | IC50 ([4]; 48 hr CTG, read-out: MM1S IC50) [nM] | IC50 [5] [nM] | IC50 [6, 9] [nM] | IC50 ([1]; RPMI-8226, 48 h, read-out: RPMI-8226 IC50 [nM]) [nM] | IC50 ([3]; 48 h, read-out: Hs 746T IC50 [nM]) [nM] | IC50 ([4]; 48 h, read-out: MM1S IC50 [nM]) [nM] | IC50 ([6]; A549, read-out: PGLo A549 [nM]) [nM]
1 | Cc1ccc2cc1CNC(=O)[C@H](CCc1ccccc1)NC(=O)[C@@H](NC(=O)CCN1CCC3(CCC3)CC1)CC(=O)N1CCCC(CCO2)C1 (stereo partly drawn) [Compound 638, N-((9S,12S)-5^4-methyl-8,11,14-trioxo-9-phenethyl-4-oxa-7,10-diaza-1(3,1)-piperidina-5(1,3)-benzenacyclotetradecaphane-12-yl)-3-(7-azaspiro[3.5]nonan-7-yl)propanamide] | < 100 | < 100 | < 100 | < 100 | < 100 | < 100 |  |  |  | 
2 | Cc1ccc2cc1CNC(=O)[C@H](CCc1ccccc1)NC(=O)[C@@H](NC(=O)OC1CCCCC1)CC(=O)N1CCCC(CCO2)C1 (stereo partly drawn) [Compound 632, cyclohexyl ((9S,12S)-5^4-methyl-8,11,14-trioxo-9-phenethyl-4-oxa-7,10-diaza-1(3,1)-piperidina-5(1,3)-benzenacyclotetradecaphane-12-yl)carbamate] | < 100 | < 100 | < 100 | < 100 | < 100 | < 100 |  |  |  | 
3 | Cc1ccc2cc1CNC(=O)[C@H](C1Cc3ccccc3C1)NC(=O)[C@@H](NC(=O)Cc1cn3ccsc3n1)CC(=O)N1CCCC(CCO2)C1 (stereo partly drawn) [Compound 602, N-((9S,12S)-9-(2,3-dihydro-1H-inden-2-yl)-5^4-methyl-8,11,14-trioxo-4-oxa-7,10-diaza-1(3,1)-piperidina-5(1,3)-benzenacyclotetradecaphane-12-yl)-2-(imidazo[2,1-b]thiazol-6-yl)acetamide] | < 100 | < 100 | < 100 | < 100 | < 100 | < 100 |  |  |  | 
4 | Cc1ccc2cc1CNC(=O)[C@H](CCc1ccccc1)NC(=O)[C@@H](NC(=O)Cc1ccccc1)CCN(C)C(=O)N1CCCC(CCO2)C1 (stereo partly drawn) [Compound 696, N-((9S,12S)-5^4,15-dimethyl-8,11,16-trioxo-9-phenethyl-4-oxa-7,10,15-triaza-1(3,1)-piperidina-5(1,3)-benzenacyclohexadecaphane-12-yl)-2-phenylacetamide] |  | < 100 |  |  | < 100 |  | < 100 | < 100 | < 100 | < 100
5 | Cc1ccc2cc1CNC(=O)[C@H](CCc1ccccc1)NC(=O)[C@@H](NC(=O)N1CCC(O)CC1)CC(=O)N1CCCC(CCO2)C1 (stereo partly drawn) [Compound 681, 4-hydroxy-N-((9S,12S)-5^4-methyl-8,11,14-trioxo-9-phenethyl-4-oxa-7,10-diaza-1(3,1)-piperidina-5(1,3)-benzenacyclotetradecaphane-12-yl)piperidine-1-carboxamide] | < 100 | < 100 | < 100 | < 100 | < 100 | < 100 |  |  |  | 
6 | O=C(Cc1ccccc1)N[C@H]1CC(=O)N2CCCC(CCOc3ccc(F)c(c3)CNC(=O)[C@H](CCc3ccccc3)NC1=O)C2 (stereo partly drawn) [Compound 661, N-((9S,12S)-5^4-fluoro-8,11,14-trioxo-9-phenethyl-4-oxa-7,10-diaza-1(3,1)-piperidina-5(1,3)-benzenacyclotetradecaphane-12-yl)-2-phenylacetamide] | < 100 | < 100 | < 100 | < 100 | < 100 | < 100 |  |  |  | 
7 | Cc1ccc2cc1CNC(=O)[C@H](CCc1ccccc1)NC(=O)[C@@H](NC(=O)N1CC(C)(C)c3cc(N)ccc31)CC(=O)N1CCCC(CCO2)C1 (stereo partly drawn) [Compound 666, 5-amino-3,3-dimethyl-N-((9S,12S)-5^4-methyl-8,11,14-trioxo-9-phenethyl-4-oxa-7,10-diaza-1(3,1)-piperidina-5(1,3)-benzenacyclotetradecaphane-12-yl)indoline-1-carboxamide] | < 100 | < 100 | < 100 | < 100 | < 100 | < 100 |  |  |  | 

Now from value to molecule, other results behind:

Row | IC50 [1, 7] [nM] | IC50 [2] [nM] | IC50 [3, 8] [nM] | IC50 ([4]; 48 hr CTG, read-out: MM1S IC50) [nM] | IC50 [5] [nM] | IC50 [6, 9] [nM] | Structure (SMILES) | IC50 ([1]; RPMI-8226, 48 h, read-out: RPMI-8226 IC50 [nM]) [nM] | IC50 ([3]; 48 h, read-out: Hs 746T IC50 [nM]) [nM] | IC50 ([4]; 48 h, read-out: MM1S IC50 [nM]) [nM] | IC50 ([6]; A549, read-out: PGLo A549 [nM]) [nM]
8 | < 100 | < 100 | < 100 | < 100 | < 100 | < 100 | Cc1ccc2cc1CNC(=O)[C@H](CCc1ccccc1)NC(=O)[C@@H](NC(=O)Cc1ccc3ncccc3c1)CC(=O)N1CCCC(CCO2)C1 (stereo partly drawn) [Compound 586, N-((9S,12S)-5^4-methyl-8,11,14-trioxo-9-phenethyl-4-oxa-7,10-diaza-1(3,1)-piperidina-5(1,3)-benzenacyclotetradecaphane-12-yl)-2-(quinolin-6-yl)acetamide] |  |  |  | 
9 | < 100 | < 100 | < 100 | < 100 | < 100 | < 100 | Cc1ccc2cc1CNC(=O)[C@H](CCc1ccccc1)NC(=O)[C@@H](NC(=O)CCNC1CCCC1)CC(=O)N1CCCC(CCO2)C1 (stereo partly drawn) [Compound 675, 3-(cyclopentylamino)-N-((9S,12S)-5^4-methyl-8,11,14-trioxo-9-phenethyl-4-oxa-7,10-diaza-1(3,1)-piperidina-5(1,3)-benzenacyclotetradecaphane-12-yl)propanamide] |  |  |  | 
10 | < 100 | < 100 | < 100 | < 100 | < 100 | < 100 | Cc1ccc2cc1CNC(=O)[C@H](CCc1ccccc1)NC(=O)[C@@H](NC(=O)CCOC1CCCC1)CC(=O)N1CCCC(CCO2)C1 (stereo partly drawn) [Compound 629, 3-(cyclopentyloxy)-N-((9S,12S)-5^4-methyl-8,11,14-trioxo-9-phenethyl-4-oxa-7,10-diaza-1(3,1)-piperidina-5(1,3)-benzenacyclotetradecaphane-12-yl)propanamide] |  |  |  | 
11 | < 100 | < 100 | < 100 | < 100 | < 100 | < 100 | Cc1ccc2cc1CNC(=O)[C@H](CCc1ccccc1)NC(=O)[C@@H](NC(=O)CCN1CCC3(CCCC3)CC1)CC(=O)N1CCCC(CCO2)C1 (stereo partly drawn) [Compound 613, N-((9S,12S)-5^4-methyl-8,11,14-trioxo-9-phenethyl-4-oxa-7,10-diaza-1(3,1)-piperidina-5(1,3)-benzenacyclotetradecaphane-12-yl)-3-(8-azaspiro[4.5]decan-8-yl)propanamide] |  |  |  | 
12 | < 100 | < 100 | < 100 | < 100 | < 100 | < 100 | Cc1ccc2cc1CNC(=O)[C@H](CCc1ccccc1)NC(=O)[C@@H](NC(=O)CCOCCC1CCCC1)CC(=O)N1CCCC(CCO2)C1 (stereo partly drawn) [Compound 623, 3-(2-cyclopentylethoxy)-N-((9S,12S)-5^4-methyl-8,11,14-trioxo-9-phenethyl-4-oxa-7,10-diaza-1(3,1)-piperidina-5(1,3)-benzenacyclotetradecaphane-12-yl)propanamide] |  |  |  | 
13 | < 100 | < 100 | < 100 | < 100 | < 100 | < 100 | CCN1CCC(F)(C(=O)N[C@H]2CC(=O)N3CCCC(CCOc4ccc(C)c(c4)CNC(=O)[C@H](CCc4ccccc4)NC2=O)C3)CC1 (stereo partly drawn) [Compound 592, 1-ethyl-4-fluoro-N-((9S,12S)-5^4-methyl-8,11,14-trioxo-9-phenethyl-4-oxa-7,10-diaza-1(3,1)-piperidina-5(1,3)-benzenacyclotetradecaphane-12-yl)piperidine-4-carboxamide] |  |  |  | 
